The test system of assay [1] is LPS-stimulated hPBMC and human whole blood. The assay is described as follows: Cytokine modulation in LPS-stimulated hPBMC and human whole blood. In kind it is cell-based. From the text: TNF-α is an inflammatory cytokine produced by macrophages and monocytes during acute inflammation. TNF-α is responsible for a diverse range of signaling events within cells. TNF-α may play a pathological role in cancer. Without being limited by theory, one of the biological effects exerted by Compound A is the reduction of synthesis of TNF-α. Compound A enhances the degradation of TNF-α mRNA.

Assay [2] has as its system murine liver cancer cell line (BNL-1MEA). The assay is described as follows: Orthotopic HCC (liver cancer) model. Type of assay: in vivo, mice. The following applies: Compound A in combination with anti-CTLA-4 antibody; 22 days of treatment; FIG. 1. The protocol:
The effects of Compound A in combination with checkpoint inhibitors were investigated in an orthotopic HCC model. The orthotopic HCC model was established by injecting about 2×10^5 murine liver cancer cell line (BNL-1MEA) cells into the sub-capsular area of the left liver lobe of male BALB/c or SCID mice at age of 6-7 weeks. Mice were randomized to different treatment groups on day 6 after tumor implantation. Tumor volumes were measured after 22 days of treatment with Compound A alone, the checkpoint inhibitor alone, and Compound A in combination with the checkpoint inhibitor by using the following formula: volume [mm^3]=[width]^2×length×0.5. Tumor tissues were cut into small pieces, followed by incubation with HBSS containing collagenase type I (0.05 mg/ml), collagenase type IV (0.05 mg/ml), hyaluronidase (0.025 mg/ml), DNase (0.01 mg/ml) and soybean trypsin inhibitor (1 mg/ml) (all from Sigma-Aldrich) for 15 minutes. TILs were recovered by using Ficoll-Paque gradient and subjected to lymphocyte subpopulations analysis by flow cytometry (FACScan Caliber, Becton Dickinson; data processed by using the […] Software, BD Biosciences Pharmingen). CD4+ T cells, CD8+ T cells, NK cells, or NKT cells were determined by double staining with specific antibodies recognizing murine CD3 (clone 145-2C11), CD4 (cone GK1.5), CD8 (clone 53-6.7), or Pan-NK (clone DX5)(BD Biosciences Pharmingen). […]

The next assay relates to SEB-stimulated PBMC. The assay is described as follows: 5 day SEB-stimulated PBMC assay (IL-2 ELISA). Type of assay: cell-based, human. The following applies: for IL-2 secretion compared to either single agent: 5 days. The protocol: In one exemplary study, PBMC cells were pretreated with Compound A for 1 hour, then SEB/CPI were added for 5 days, IL-2 elisa on day 5. The results are shown in FIG. 2A (Compound A in combination with nivolumab), FIG. 2B (Compound A in combination with a surrogate commercial anti-PD-1 antibody from BioLegend), and FIG. 2C (Compound A in combination with a surrogate commercial anti-PD-L1 antibody from BioLegend).
In another exemplary study, Compound A treated PBMCs from healthy donors were stimulated with 10 pg/ml of SEB (ThermoFisher Scientific) followed by addition of nivolumab (obtained from Blue Door Pharma), anti-PD1 (anti-human CD279 clone EH12.2H7, obtained from BioLegend, Cat #329926, lot B194623), and anti-PD-L1 (anti-human CD274 (B7-H1) clone 29E.2A3, obtained from BioLegend, Cat #329716, lot B197650) blocking antibodies. After 5 days of incubation, supernatants were collected and an ELISA for IL-2 (BD Biosciences) was utilized to examine secreted IL-2.

In assay [3] the test system is CD4+ T cells co-cultured with monocyte-derived DC. The assay is described as follows: Mixed lymphocyte reaction (MLR) assay. Type of assay: cell-based, human. The settings on record: for IL-2 secretion compared to either single agent: 48 hours. Here is the method:
In one exemplary study, monocytes were isolated from buffy coat using Easy Sep kit (StemCell Technologies) and cultured in RPMI supplemented with 10% FBS, IL-4, and GM-CSF for 7 days. On day 7, CD4+ T cells were isolated from leukopak using Easy Sep kit (StemCell Technologies) and co-cultured with Monocyte-derived DC (MDC) using a 10:1 ratio. Secreted IL-2 was quantified by ELISA at 48 hours and IFNγ was measured at 5 days. Throughout the experiment, surface marker expression was determined by flow cytometry. The results are shown in FIG. 3A (IL-2, 10 nM Compound A), FIG. 3B (IL-2, 100 nM Compound A), and FIG. 4A (IFNγ, 100 nM). Compound A in combination with nivolumab enhanced IL-2 and IFNγ secretion in the mixed lymphocyte reaction. In another exemplary study, monocytes were isolated from healthy donor buffy coat (Stem Cell Technologies) and cultured with 500 U/ml IL-4 and 250 U/ml GM-CSF (R&D Systems) for 7 days until the monocytes differentiated into dendritic cells (DC) by culturing with media containing a cocktail of IL-4 and GM-CSF for 7 days. On day 7, CD4^+ T cells from a different healthy donor were isolated from a leukopak (Stem Cell Technologies). The DC and T cells were mixed at a ratio of 1:10 and co-cultured for 5 days with Compound A and nivolumab (obtained from Blue Door Pharma) or anti-PD-L1 (anti-human CD274 (B7-H1) clone 29E.2A3, obtained from BioLegend, Cat #329716, lot B197650). Supernatants were harvested for IL-2 ELISA at 48 hours (R&D Systems) and for IFNγ ELISA at 5 days (Thermo Fisher Scientific). Monocytes, DC, T cells, and mixed lymphocytes were stained for flow cytometric analysis of CD14, HLA-DR, CD80, CD86, CD83, CD40, CD3, PD-1, PD-L1 surface expression markers throughout the duration of the experiment.

The subject of assay [4] is anti-CD3/CD28 stimulated PBMCs (NK, NKT, CD4+ and CD8+ T cell). The assay is described as follows: Lymphocyte proliferation assay. The settings on record: combination of Compound A with nivolumab, 6 days. In kind it is cell-based, human. The protocol:
To further explore immune activation resulting from the combination of Compound A and nivolumab, proliferation of immune cell subsets including NK, NKT, CD4+ and CD8+ T cell was examined. CellTrace Violet (Thermo Fisher) labeled PBMCs from healthy volunteers were treated with Compound A and nivolumab in combination or as single agent, and stimulated with soluble anti-CD3/CD28 (Stem Cell Technologies) for 6 days. Cells were collected and flow cytometry was performed to assay for surface expression of CD3, CD4, CD8, and CD56 (BD Biosciences). Dead cells were excluded by live/dead fixable stain (ThermoFisher Scientific). Prior to flow cytometry, CountBright beads (Thermo Fisher Scientific) were added to examine changes in absolute cell count.

Assay [5] concerns JHH4, a PD-L1 positive HCC cell line. The assay is described as follows: PBMC mediated natural cytotoxicity against JHH4. Type of assay: cell-based, human. The settings on record: p<0.05, FIG. 6.
Assay [6] deals with CD4+ and CD8+ T cells and autologous CLL tumor cells. The assay is described as follows: Immunological synapse bioassay in CLL cells. Type of assay: cell-based, human.
In assay [7] the test system is acute myeloid leukemia (AML) at relapse. The settings on record: administered alone; cited from earlier work.
The test system of the next assay is advanced melanoma. The settings on record: patients with advanced melanoma; Hodi et al. 2010; cited from earlier work.
Assay [8] has as its system DLBCL, FL and T-cell lymphomas. The settings on record: monotherapy; cited from earlier work.
[9] abbreviates: Compound A 0.01-1 μM for 24 h, compared to vehicle treated cells, P<0.01.
[10] abbreviates: synapse with PD-L1+ tumor cells.

Take `Cc1nc2cccc(N)c2c(=O)n1C1CCC(=O)NC1=O` (centres unmarked) [Compound A, 3-(5-amino-2-methyl-4-oxo-4H-quinazolin-3-yl)-piperidine-2,6-dione]: in assay [1], the IL-1β inhibition result is reported as “potently inhibits”. Besides, the IL-10 stimulation entry in [1] is “stimulates”. Also, the TNF-α inhibition entry in assay [1] is given as “markedly inhibits”. Also, the “anti-tumor efficacy in term of tumor volume” value in assay [2] was “significant synergistic anti-tumor efficacy”. Also, the “IL-2 secretion compared to either single agent” value with SEB-stimulated PBMC (40 nM Compound A with anti-PD-1 blocking antibody, synergy above 1 μg/ml anti-PD-1, FIG. 2E) is “synergistic IL-2 secretion”; in the assay on SEB-stimulated PBMC (40 nM Compound A with anti-PD-L1 blocking antibody, synergy above 10 μg/ml anti-PD-L1, FIG. 2F), “synergistic IL-2 secretion”; in the assay on SEB-stimulated PBMC (40 nM Compound A with nivolumab, synergy between 0.1-100 μg/ml nivolumab, FIG. 2D), “synergistic IL-2 secretion”; in [3] (Compound A with anti-PD-L1, synergy at 1-10 μg/ml anti-PD-L1, FIG. 3D), “synergistic IL-2 secretion”; in assay [3] (Compound A with nivolumab, synergy between 0.01-10 μg/ml nivolumab, FIG. 3C), “synergistic IL-2 secretion”. For the same compound, the IL-2 secretion result is “synergistically enhanced IL-2 secretion” in the assay with SEB-stimulated PBMC (Compound A pretreatment 1 hour, then SEB/CPI (nivolumab, anti-PD-1 or anti-PD-L1) for 5 days, FIG. 2A-2C) and “enhanced” in assay [3] (Compound A (10 nM, 100 nM) in combination with nivolumab, ELISA at 48 hours, FIG. 3A, 3B). Also, the IFNγ secretion entry in assay [3] (Compound A (100 nM) in combination with nivolumab, 5 days, FIG. 4A) is given as “enhanced”; in [3] (Compound A with anti-PD-L1 between 0.1-10 μg/ml, 5 days of co-culture, FIG. 4C) it was “increased synergistically”; in assay [3] (Compound A with nivolumab between 0.1-10 μg/ml, 5 days of co-culture, FIG. 4B) it was “increased synergistically”. Besides, in assay [4] (FIG. 5A), the “proliferation in NK cells (absolute cell numbers)” value is recorded as “enhanced proliferation”. The “proliferation in NKT cells (absolute cell numbers)” value in [4] (FIG. 5B) is “enhanced proliferation”. Further, the “proliferation in CD4+ T-cells (absolute cell numbers)” value in [4] (FIG. 5C) is reported as “but not CD4+ T-cells”. Besides, in [4] (FIG. 5D), the “proliferation in CD8+ T-cells (absolute cell numbers)” value was “enhanced proliferation”. In addition, the “PBMC-mediated cell killing of HCC cell line JHH4” value in assay [5] (50 nM Compound A combined with 1 μg/ml anti-PD-L1) and in [5] (50 nM Compound A combined with 1-10 μg/ml nivolumab) was “significantly enhanced” in each case. Also, the “formation of F-actin immune synapses (area size)” value in assay [6] (setting [9]) is “increased”. The “number of T cells recognizing tumor cells (% conjugation formation)” value in assay [6] (setting [9]) was “dramatically enhanced”. Moreover, the “T cell synapse activity compared to immunotherapy alone” value in assay [6] (Compound A with anti-CTLA-4 blocking antibody, FIG. 7A) is reported as “increased T cell synapse activity”; in [6] (Compound A with anti-PD-1 blocking antibody, FIG. 7B), “increased T cell synapse activity”; in assay [6] (Compound A with anti-PD-L1 blocking antibody, FIG. 7C), “increased T cell synapse activity”. In addition, the “synapse strength (total fluorescence intensity of F-actin per T cell:APC conjugate)” value in assay [6] (P<0.01) was “increased significantly”. Further, the “recruitment of inducible co-stimulator (ICOS) to the synapse” value in assay [6] (dose-dependent, P<0.01) is reported as “increased recruitment”. For the same compound, the “polarized expression of CTLA-4 at the synapse” value in assay [6] (setting [10]) is “increased polarized expression”. For the same compound, in [6] (setting [10]), the “polarized expression of PD-1 at the synapse” value is given as “increased polarized expression”.

In the case of “CT-011: anti-PD-1 antibody, a humanized antibody”, the “response in treating AML at relapse” value in assay [7] is “failed to show response”.

On to “ipilimumab: fully human monoclonal IgG antibody that binds to CTLA-4”, for which, in the assay on advanced melanoma, the overall survival result is listed as “overall survival benefit”.

As for “nivolumab: human IgG4 anti-PD-1 monoclonal antibody”, the antitumor activity result in [8] was “has shown antitumor activity”.

Values taken from patent US10973822B2, “Combination therapy for treatment of hematological cancers and solid tumors” (Celgene Corporation, priority 2015, dated 2021).
